Assay results: US20080058579A1, “Compositions and methods for treating disease utilizing a combination of radioactive therapy and cell-cycle inhibitors” (Angiotech International AG, priority 1999, published 2008)

System: PC3 human prostate cells
Experiment: In vivo treatment model using a locally administered cell cycle inhibitor with local radiation
Conditions: FIG. 16; for percent reduction in tumor volume: one week after treatment
Source text: This animal model is used to determine the effectiveness of a locally administered cell cycle inhibitor (e.g., paclitaxel) in conjunction with a locally administered radiation source in treating a proliferative disease, specifically, a cancer. The relative change in tumor volume measured in tumor bearing mice receiving various treatments will be used to gauge the therapy's effectiveness relative to use of local radiation alone or locally administered cell cycle inhibitor alone.
The methods used are as follows. Cancer cells (specifically PC3) human prostate cells, American Type Culture Collection, Rockville Md.) are maintained in DMEM solution with 5% heat-inactivated fetal calf serum. Male SCID mice are inoculated with approximately 1×10^6 cells subcutaneously in the flank region. The tumor injection sites are followed by visual inspection or palpation. Tumor volume is measured using calipers. The tumor is allowed to grow until it reaches a treatable volume of 100-200 mm^3.
At this time the mice are treated as follows. Approximately six brachytherapy seeds are implanted adjacent to the tumor to deliver a local radiation dose of 25-40 Gy (I^125 radiation source). A polymeric paste (100 μl) containing 50 μg paclitaxel (0.5% w/w) is injected subcutaneously adjacent to or into the tumor. The following treatment groups were studied (10 mice per group). 1) Control paste without paclitaxel and non-radioactive (cold) seeds. 2) Control paste and radioactive seeds. 3) 0.5% w/w paclitaxel loaded paste and cold seeds. 4) 0.5% w/w paclitaxel loaded paste and radioactive seeds.
Tumor size is measured at twice-weekly intervals using calipers. An investigator blinded to the experimental groups will conduct the measurements. Caliper measured dimensions may be taken in two (length (L), width (W)) or three dimensions (Height (H)). […]
The animal data are analyzed as follows. The means and standard deviations of the tumor measurements are determined and plotted from the initial day of caliper measurement until the final measurement. […]

Question: How did the tumor volume (one week after treatment with locally administered radiation (I-125) and locally administered paclitaxel, n=9 per treatment) turn out when `CC(=O)O[C@H]1C(=O)[C@@]2(C)[C@H]([C@H](OC(=O)c3ccccc3)[C@]3(O)C[C@H](OC(=O)[C@H](O)[C@@H](NC(=O)c4ccccc4)c4ccccc4)C(C)=C1C3(C)C)[C@]1(OC(C)=O)CO[C@@H]1C[C@@H]2O` [paclitaxel] was run?
Answer: decreased

Question: And the “percent reduction in tumor volume” value (only one of the two treatments (paclitaxel alone))?
Answer: lesser reduction

Question: What about the “percent reduction in tumor volume” value (paclitaxel paste (0.5% w/w) and I-125 seeds given in combination) of the same compound?
Answer: greatest
